In patent US20250051344A1, “BIFUNCTIONAL SELECTIVE DEGRADERS OF SMARCA2 AND THERAPEUTIC USES THEREOF” (Nurix Therapeutics, Inc., priority 2023, published 2025):

How the values were obtained:
SMARCA4 = target: T1, SMARCA4 (Homo sapiens, UniProt P51532); test: Cellular degradation assay, SMARCA4 (Table 1); type: cell-based
T1 construct: endogenous in cells

SMARCA2 = target: T2, SMARCA2 (Homo sapiens, UniProt P51531); test: SMARCA2 Cellular Degradation Assay (Western blot analysis on Jess platform); type: cell-based; details: for DC50 / Dmax: cellular degradation; for Fold Selectivity SMARCA4/2: ratio DC50 SMARCA4 / DC50 SMARCA2
T2 construct: endogenous in cells
T2 sequence (P51531 whole entry, species assumed): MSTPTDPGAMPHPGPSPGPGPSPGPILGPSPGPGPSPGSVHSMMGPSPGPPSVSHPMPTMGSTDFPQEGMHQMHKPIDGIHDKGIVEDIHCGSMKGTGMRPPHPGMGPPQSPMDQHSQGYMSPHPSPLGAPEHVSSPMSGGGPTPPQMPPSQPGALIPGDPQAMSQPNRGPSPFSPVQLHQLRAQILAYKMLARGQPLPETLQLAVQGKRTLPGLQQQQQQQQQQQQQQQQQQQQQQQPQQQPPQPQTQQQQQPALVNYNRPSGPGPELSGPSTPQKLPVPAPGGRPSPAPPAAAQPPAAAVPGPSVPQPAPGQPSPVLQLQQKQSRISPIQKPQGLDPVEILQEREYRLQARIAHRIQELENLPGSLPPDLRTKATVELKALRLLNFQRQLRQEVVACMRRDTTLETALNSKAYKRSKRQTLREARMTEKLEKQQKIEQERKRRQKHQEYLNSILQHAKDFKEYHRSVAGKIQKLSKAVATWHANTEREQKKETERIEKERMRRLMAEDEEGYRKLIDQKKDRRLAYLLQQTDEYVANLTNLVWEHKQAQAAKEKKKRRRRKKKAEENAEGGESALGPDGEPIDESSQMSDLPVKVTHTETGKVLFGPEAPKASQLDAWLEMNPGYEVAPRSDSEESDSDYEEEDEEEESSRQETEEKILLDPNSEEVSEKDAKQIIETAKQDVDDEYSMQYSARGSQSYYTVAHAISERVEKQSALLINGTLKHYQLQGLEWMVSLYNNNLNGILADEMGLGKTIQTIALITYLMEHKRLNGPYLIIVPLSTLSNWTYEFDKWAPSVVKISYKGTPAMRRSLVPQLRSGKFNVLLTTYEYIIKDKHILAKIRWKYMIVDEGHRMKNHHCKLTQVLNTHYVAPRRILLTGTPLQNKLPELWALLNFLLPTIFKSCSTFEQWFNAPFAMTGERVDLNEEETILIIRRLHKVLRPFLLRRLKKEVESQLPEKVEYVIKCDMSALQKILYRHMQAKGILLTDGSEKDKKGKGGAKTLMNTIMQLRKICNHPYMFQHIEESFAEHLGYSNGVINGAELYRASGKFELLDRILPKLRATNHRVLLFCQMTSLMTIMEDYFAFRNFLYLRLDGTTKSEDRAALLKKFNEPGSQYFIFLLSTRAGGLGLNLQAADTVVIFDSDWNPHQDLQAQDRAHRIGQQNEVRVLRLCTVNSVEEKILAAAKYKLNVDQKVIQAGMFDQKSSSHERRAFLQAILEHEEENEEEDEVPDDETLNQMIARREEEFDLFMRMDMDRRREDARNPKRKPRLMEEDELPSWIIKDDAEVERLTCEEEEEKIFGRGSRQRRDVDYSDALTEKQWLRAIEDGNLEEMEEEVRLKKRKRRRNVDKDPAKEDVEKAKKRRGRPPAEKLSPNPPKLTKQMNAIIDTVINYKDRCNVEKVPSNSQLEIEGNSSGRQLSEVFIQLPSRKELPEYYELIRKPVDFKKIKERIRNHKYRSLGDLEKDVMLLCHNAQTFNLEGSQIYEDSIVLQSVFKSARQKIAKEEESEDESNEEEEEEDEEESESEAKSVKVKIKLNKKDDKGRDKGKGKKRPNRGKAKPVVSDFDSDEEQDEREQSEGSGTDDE
Protocol: SMARCA2 Cellular Degradation Assay
Western Blot Analysis for SMARCA2 Degradation
Frozen cell pellets were thawed on ice and resuspended in RIPA lysis buffer (Millipore, Cat. No. 20-188) supplemented with 0.2% SDS (Fisher Scientific, Cat. No. 24730020), 200 mM β-glycerophosphate (Alfa Aesar, Cat. No. J62121), 500 mM NaF (Rigaku, Cat. No. 1008046), protease inhibitor (1 tablet per 10 mL, Sigma, Cat. No. 11836170001), 250 U/μL benzonase (Millipore, Cat. No. 71206), 200 mM sodium orthovanadate (FivePhoton, Cat. No. ActVO-4), and 100 mM PMSF (Sigma, Cat. No. 10837091001). 50 μL lysis buffer was used to lyse each pellet containing 5×10E5-1×10E6 live cells extracted from tumors. Lysates were centrifuged for 10 mins at 20,817×g and lysate supernatants were saved for further analysis. Protein levels were determined by the BCA Assay performed according to manufacturer's protocol (EMD Millipore, Cat. No. 71285-3). Samples were evaluated by Western blot analysis on the Jess Platform (ProteinSimple). Lysates were diluted with complete lysis buffer (as described above) and 5 μg of total proteins were loaded onto each capillary. Samples were prepared using the ProteinSimple EZ Standard Pack 1 (Cat. No. PS-ST01EZ-8; containing tubes with powdered (5×) Fluorescent Master Mix, DTT, and biotinylated ladder) and run using the ProteinSimple 25-Capillary Cartridge kit (Cat. No. SM-W004; containing 25-capillary cartridge Wash reagent, and 10× Sample Buffer reagent), the ProteinSimple Anti-Rabbit HRP Detection Module for Jess (Cat. No. DM-001; containing Antibody Diluent, anti-rabbit secondary antibody, Luminol-S, Peroxide, and Streptavidin-HRP), and the ProteinSimple Anti-Mouse NIR Detection Module for Jess (Cat. No. DM-009; containing Antibody Diluent, anti-mouse NIR secondary antibody, and Streptavidin-NIR) as the following describes. The DTT was reconstituted with 40 μL water to make a 400 mM solution, 20 μL of the DTT solution plus 20 μL of 10× Sample Buffer were added to reconstitute the 5× Fluorescent Master Mix, and 20 μL of H2O was used to reconstitute the biotinylated ladder. For each sample, lysate (4 μL) was combined with 5× Fluorescent Master Mix (1 μL) and heated at 95° C. for 5 minutes. Samples were cooled and stored on ice. Primary antibody solution was made using anti-SMARCA2 antibody (Abcam, Cat. No. 240648, 1:10) and anti-beta-Actin antibody (Cell Signaling Technology, Cat. No. 3700S, 1:25) in antibody diluent. The 25-capillary cartridges were prepared per standard ProteinSimple protocol with each sample in a column. For the biotinylated ladder in column 1, the following were added: 5 µL of ladder sample in Row A, 10 μL of antibody diluent in Rows B and C, 10 μL of Streptavidin-NIR in Row D, and 15 μL of a 50:50 Luminol-s/Peroxide solution in Row E. For each test sample (columns 2-25), the following were added per column: 5 μL of sample in Row A, 10 μL of antibody diluent in Row B, 10 μL of primary antibody solution in Row C, 10 μL of secondary antibody in Row D, and 15 μL of a 50:50 Luminol-S/Peroxide solution in Row E. 500 μL wash buffer was added to the wash buffer wells in the cartridge and cartridge was spun at 1000×g for 5 minutes prior to loading into the Jess. Samples were run using the Chemiluminescence and Fluorescence immunoassays in the ProteinSimple Compass for SimpleWestern program (version 5.0.0). After running, SMARCA2, actin, and background curves were identified in the Compass software; note that in the Compass software, the electropherograms are also visualized as bands for comparison with standard Western blot outputs. The electropherogram area reading for each sample curve was normalized to that of the corresponding actin curve per column following background (capillary background) subtraction using the following equation: […]
Following normalization, the percentage of SMARCA2 remaining per sample relative to the vehicle control was calculated as follows: […]

T1 sequence (P51532 whole entry, species assumed): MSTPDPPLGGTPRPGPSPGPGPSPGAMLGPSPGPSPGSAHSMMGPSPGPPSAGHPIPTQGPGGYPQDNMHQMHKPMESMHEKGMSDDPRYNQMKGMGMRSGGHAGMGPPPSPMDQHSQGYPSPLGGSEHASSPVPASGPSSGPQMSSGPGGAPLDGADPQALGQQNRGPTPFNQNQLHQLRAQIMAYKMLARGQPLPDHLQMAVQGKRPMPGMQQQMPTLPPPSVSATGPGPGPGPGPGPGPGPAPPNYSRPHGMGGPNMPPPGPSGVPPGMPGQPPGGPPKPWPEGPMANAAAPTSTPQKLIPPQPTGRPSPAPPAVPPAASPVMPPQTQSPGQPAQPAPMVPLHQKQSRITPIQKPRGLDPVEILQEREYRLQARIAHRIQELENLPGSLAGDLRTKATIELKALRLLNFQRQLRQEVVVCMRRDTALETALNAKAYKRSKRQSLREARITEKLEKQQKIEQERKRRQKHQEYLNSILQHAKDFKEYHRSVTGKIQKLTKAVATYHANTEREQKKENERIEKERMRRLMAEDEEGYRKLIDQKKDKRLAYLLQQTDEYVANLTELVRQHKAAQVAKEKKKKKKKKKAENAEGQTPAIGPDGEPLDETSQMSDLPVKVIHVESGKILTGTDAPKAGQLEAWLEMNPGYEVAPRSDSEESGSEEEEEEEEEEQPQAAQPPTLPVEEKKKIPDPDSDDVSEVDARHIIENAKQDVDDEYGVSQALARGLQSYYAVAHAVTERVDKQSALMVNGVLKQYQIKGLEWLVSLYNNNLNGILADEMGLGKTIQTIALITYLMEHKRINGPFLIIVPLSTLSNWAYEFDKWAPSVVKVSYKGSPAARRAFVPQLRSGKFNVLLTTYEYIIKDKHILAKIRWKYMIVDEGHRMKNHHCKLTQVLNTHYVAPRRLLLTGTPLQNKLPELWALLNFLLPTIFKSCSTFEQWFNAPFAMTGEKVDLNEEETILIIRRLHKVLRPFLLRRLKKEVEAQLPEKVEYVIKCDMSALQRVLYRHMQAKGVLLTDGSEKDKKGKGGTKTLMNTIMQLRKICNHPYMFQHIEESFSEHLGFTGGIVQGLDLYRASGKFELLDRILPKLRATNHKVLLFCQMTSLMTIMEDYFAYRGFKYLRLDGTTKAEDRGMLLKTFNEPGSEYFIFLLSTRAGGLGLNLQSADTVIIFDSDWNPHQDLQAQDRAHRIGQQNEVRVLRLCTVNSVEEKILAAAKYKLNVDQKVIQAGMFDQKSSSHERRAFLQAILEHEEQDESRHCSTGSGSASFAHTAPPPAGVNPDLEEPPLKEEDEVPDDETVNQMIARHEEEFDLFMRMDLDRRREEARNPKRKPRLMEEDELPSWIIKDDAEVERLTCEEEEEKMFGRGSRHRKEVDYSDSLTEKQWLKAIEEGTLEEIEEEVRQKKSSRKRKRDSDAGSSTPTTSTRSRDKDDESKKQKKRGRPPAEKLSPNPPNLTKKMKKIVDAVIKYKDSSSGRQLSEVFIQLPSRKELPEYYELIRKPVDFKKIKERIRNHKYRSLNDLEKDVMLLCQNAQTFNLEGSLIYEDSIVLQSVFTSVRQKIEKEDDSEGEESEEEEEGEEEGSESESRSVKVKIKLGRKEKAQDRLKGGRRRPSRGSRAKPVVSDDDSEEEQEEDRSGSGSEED

In the case of `O=C1CC[C@H](c2ccc(N3CCC(CCN4CCC(C(=O)NCC5(c6ccccc6)CCN(c6cnnc(-c7ccccc7O)c6)CC5)C5CC54)CC3)cc2)C(=O)N1` (mixture of isomers) [Example 84, rac-2-(2-(1-(4-((r)-2,6-dioxopiperidin-3-yl)phenyl)piperidin-4-yl)ethyl)-n-((1-(6-(2-hydroxyphenyl)pyridazin-4-yl)-4-phenylpiperidin-4-yl)methyl)-2-azabicyclo[4.1.0]heptane-5-carboxamide], the DC50 (SMARCA4) is reported as 46.5 nM, the Dmax (SMARCA4) is reported as 61.9% and the DC50 (SMARCA2) is reported as 4.23 nM. The Dmax (SMARCA2) was 89.5% and the “Fold Selectivity SMARCA4/2” value (SMARCA2) was 11.
`CC(C)c1cc(C2(C(=O)N3CC4(CN(CCC5CCN(c6ccc(C7CCC(=O)NC7=O)cc6)CC5)C4)C3)CCN(c3cnnc(-c4ccccc4O)c3)CC2)no1` (racemic) [Example 79, rac-(3R)-3-(4-{4-[2-(6-{1-[6-(2-hydroxyphenyl)pyridazin-4-yl]-4-[5-(propan-2-yl)-1,2-oxazol-3-yl]piperidine-4-carbonyl}-2,6-diazaspiro[3.3]heptan-2-yl)ethyl]piperidin-1-yl}phenyl)piperidine-2,6-dione] gave a Dmax (SMARCA4) of 21.9%, a DC50 (SMARCA2) of 12.4 nM and a Dmax (SMARCA2) of 70.7%. For the same molecule, the “Fold Selectivity SMARCA4/2” value (SMARCA2) was 806.
`Cn1c(=O)n([C@H]2CCC(=O)NC2=O)c2cccc(N3CCC(C(=O)N4C[C@@H]5[C@H](C4)[C@H]5C(=O)NCC4(c5ccccc5)CCN(c5cnnc(-c6ccccc6O)c5)CC4)CC3)c21` (racemic) [Example 72, (1r,5s,6r)-3-(1-(1-((rs)-2,6-dioxopiperidin-3-yl)-3-methyl-2-oxo-2,3-dihydro-1h-benzo[d]imidazol-4-yl)piperidine-4-carbonyl)-n-((1-(6-(2-hydroxyphenyl)pyridazin-4-yl)-4-phenylpiperidin-4-yl)methyl)-3-azabicyclo[3.1.0]hexane-6-carboxamide] was tested, and the DC50 (SMARCA4) was 25.9 nM, the Dmax (SMARCA4) was 75.4% and the DC50 (SMARCA2) was 0.61 nM. For the same molecule, the Dmax (SMARCA2) was 95.8% and the “Fold Selectivity SMARCA4/2” value (SMARCA2) was 42.
`Cc1cc(C2(C(=O)N(C)C3CCN(CCC4CCN(c5ccc(C6CCC(=O)NC6=O)cc5)CC4)CC3)CCN(c3cnnc(-c4ccccc4O)c3)CC2)on1` (racemic) [Example 88, rac-N-{1-[2-(1-{4-[(3R)-2,6-dioxopiperidin-3-yl]phenyl}piperidin-4-yl)ethyl]piperidin-4-yl}-1-[6-(2-hydroxyphenyl)pyridazin-4-yl]-N-methyl-4-(3-methyl-1,2-oxazol-5-yl)piperidine-4-carboxamide] gave a Dmax (SMARCA4) of 20.2%, a DC50 (SMARCA2) of 7.76 nM and a Dmax (SMARCA2) of 78.4%. The “Fold Selectivity SMARCA4/2” value (SMARCA2) was 1289.
`CN(C(=O)CN1CCN(c2ccc([C@H]3CCC(=O)NC3=O)cc2)CC1)[C@H]1CC[C@H](NC(=O)C2(Oc3ccccc3)CCN(c3cnnc(-c4ccccc4O)c3)CC2)CC1` (racemic) [Example 173, 1-[6-(2-hydroxyphenyl)pyridazin-4-yl]-4-phenoxy-N-[(1r,4r)-4-[2-(4-{4-[(3R)-2,6-dioxopiperidin-3-yl]phenyl}piperazin-1-yl)-N-methylacetamido]cyclohexyl]piperidine-4-carboxamide] was tested, and the Dmax (SMARCA4) was 39.8%, the DC50 (SMARCA2) was 44.9 nM and the Dmax (SMARCA2) was 62%. The “Fold Selectivity SMARCA4/2” value (SMARCA2) was 223.
Molecule `Cn1ccc(OC2(C(=O)N3CC4(CN(CCC5CCN(c6ccc(C7CCC(=O)NC7=O)c(F)c6)CC5)C4)C3)CCN(c3cnnc(-c4ccccc4O)c3)CC2)n1` (racemic) [Example 66, rac-3-(2-fluoro-4-(4-(2-(6-(1-(6-(2-hydroxyphenyl)pyridazin-4-yl)-4-((1-methyl-1H-pyrazol-3-yl)oxy)piperidine-4-carbonyl)-2,6-diazaspiro[3.3]heptan-2-yl)ethyl)piperidin-1-yl)phenyl)piperidine-2,6-dione] has a Dmax (SMARCA4) of 20.7%, a DC50 (SMARCA2) of 10.6 nM and a Dmax (SMARCA2) of 73.7%. The “Fold Selectivity SMARCA4/2” value (SMARCA2) was 947.
With `CN(C(=O)C1(c2ccccc2)CCN(c2cnnc(-c3ccccc3O)c2)CC1)C1CCN(CCC2CCN(c3ccc(C4CCC(=O)NC4=O)c(F)c3)CC2)CC1` (racemic) [Example 151, rac-N-{1-[2-(1-{4-[(3R)-2,6-dioxopiperidin-3-yl]-3-fluorophenyl}piperidin-4-yl)ethyl]piperidin-4-yl}-1-[6-(2-hydroxyphenyl)pyridazin-4-yl]-N-methyl-4-phenylpiperidine-4-carboxamide] the DC50 (SMARCA4) was 157 nM, the Dmax (SMARCA4) was 59.6% and the DC50 (SMARCA2) was 3.57 nM. The Dmax (SMARCA2) was 92.3% and the “Fold Selectivity SMARCA4/2” value (SMARCA2) was 44.
Molecule `O=C1CCC(c2ccc(N3CC[C@H](CCN4CC5(C4)CN(C(=O)C4(c6ccccc6)CCN(c6cnnc(-c7ccccc7O)c6)CC4)C5)C3)nc2)C(=O)N1` (mixture of isomers) [Example 181, (3RS)-3-{6-[(3S)-3-[2-(6-{1-[6-(2-hydroxyphenyl)pyridazin-4-yl]-4-phenylpiperidine-4-carbonyl}-2,6-diazaspiro[3.3]heptan-2-yl)ethyl]pyrrolidin-1-yl]pyridin-3-yl}piperidine-2,6-dione] has a DC50 (SMARCA4) of 317 nM, a Dmax (SMARCA4) of 42.3% and a DC50 (SMARCA2) of 19.6 nM. For the same molecule, the Dmax (SMARCA2) was 72.3% and the “Fold Selectivity SMARCA4/2” value (SMARCA2) was 16.
With `CN(C(=O)C1(c2ccnn2C)CCN(c2cnnc(-c3ccccc3O)c2)CC1)C1CCN(CC2CCN(c3ccc(C4CCC(=O)NC4=O)cc3)CC2)CC1` (racemic) [Example 91, rac-N-{1-[(1-{4-[(3R)-2,6-dioxopiperidin-3-yl]phenyl}piperidin-4-yl)methyl]piperidin-4-yl}-1-[6-(2-hydroxyphenyl)pyridazin-4-yl]-N-methyl-4-(1-methyl-1H-pyrazol-5-yl)piperidine-4-carboxamide] the Dmax (SMARCA4) was 41.8%, the DC50 (SMARCA2) was 4.52 nM and the Dmax (SMARCA2) was 79.8%. The “Fold Selectivity SMARCA4/2” value (SMARCA2) was 2212.
With `CC1(C(=O)N2CCN(c3ccc(C4CCC(=O)NC4=O)cc3)CC2)CCN(C(=O)C2(c3ccccc3)CCN(c3cnnc(-c4ccccc4O)c3)CC2)CC1` (racemic) [Example 21, rac-(3R)-3-{4-[4-(1-{1-[6-(2-hydroxyphenyl)pyridazin-4-yl]-4-phenylpiperidine-4-carbonyl}-4-methylpiperidine-4-carbonyl)piperazin-1-yl]phenyl}piperidine-2,6-dione] the Dmax (SMARCA4) was 19.3%, the Dmax (SMARCA2) was 32% and the “Fold Selectivity SMARCA4/2” value (SMARCA2) was 1.
`O=C1CC[C@H](c2ccc(N3CCC(CN4CC(F)C5(C4)CN(C(=O)C4(c6ccccc6)CCN(c6cnnc(-c7ccccc7O)c6)CC4)C5)CC3)cc2)C(=O)N1` (stereo partly drawn) [Example 25, (3R)-3-(4-{4-[(8-fluoro-2-{1-[6-(2-hydroxyphenyl)pyridazin-4-yl]-4-phenylpiperidine-4-carbonyl}-2,6-diazaspiro[3.4]octan-6-yl)methyl]piperidin-1-yl}phenyl)piperidine-2,6-dione] was tested, and the Dmax (SMARCA4) was 29.4%, the DC50 (SMARCA2) was 80.7 nM and the Dmax (SMARCA2) was 61.5%. For the same molecule, the “Fold Selectivity SMARCA4/2” value (SMARCA2) was 123.86.
`O=C1CC[C@H](c2ccc(N3CCC(CCN4CCC(C(=O)NCC5(c6ccccc6)CCN(c6cnnc(-c7ccccc7O)c6)CC5)CC45CCOCC5)CC3)cc2)C(=O)N1` (mixture of isomers) [Example 104, rac-1-(2-(1-(4-((r)-2,6-dioxopiperidin-3-yl)phenyl)piperidin-4-yl)ethyl)-n-((1-(6-(2-hydroxyphenyl)pyridazin-4-yl)-4-phenylpiperidin-4-yl)methyl)-9-oxa-1-azaspiro[5.5]undecane-4-carboxamide] was tested, and the Dmax (SMARCA4) was 50%, the DC50 (SMARCA2) was 7.3 nM and the Dmax (SMARCA2) was 81.8%. The “Fold Selectivity SMARCA4/2” value (SMARCA2) was 1370.
